Converted amounts (≈) assume the structure as drawn.
Experiments:
[1] = system: Mycobacterium tuberculosis; assay: Antitubercular activity against drug-resistant Mycobacterium tuberculosis clinical isolates assessed as growth inhibition; assay type: functional
[2] = system: Mycobacterium tuberculosis; assay: Antitubercular activity against multidrug-resistant Mycobacterium tuberculosis clinical isolates assessed as growth inhibition; assay type: functional

SMILES	MIC [1]	MIC90 [2]
COc1nc2ccc(Br)cc2cc1[C@@H](c1ccccc1)[C@@](O)(CCN(C)C)c1cccc2ccccc12 [BEDAQUILINE]	0.002 µg/mL (≈ 0.0036 µM)	–
CCc1nc2ccc(Cl)cn2c1C(=O)NCc1ccc(N2CCC(c3ccc(OC(F)(F)F)cc3)CC2)cc1 [TELACEBEC]	–	< 0.43 nM
CC(C)=CCC/C(C)=C/CNCCNC1C2CC3CC(C2)CC1C3 (stereo not given) [SQ109]	0.2 µg/mL (≈ 0.605 µM)	–
CC(C)/N=c1\cc2n(-c3ccc(Cl)cc3)c3ccccc3nc-2cc1Nc1ccc(Cl)cc1 [CLOFAZIMINE]	0.108 µg/mL (≈ 0.228 µM)	–
COc1ncccc1Nc1cc2nc3ccccc3n(-c3ccc(OC(F)(F)F)cc3)c-2c/c1=N\C1CCC(OC)CC1 (stereo not given)	0.027 µg/mL (≈ 0.0458 µM)	–
